A short description of data set [1]: Modified microsomal clearance assay with or without NADPH, mouse liver microsomes. The data set is classed as in vitro ADME. The following applies: for Estimated % Contribution to Metabolism Mouse Esterases / Estimated % Contribution to Metabolism Mouse CYPs/FMOs: MLM, from AUC with/without NADPH vs buffer only; for CLint scaled at 1 µM: mouse, liver microsomes, pH 7.4, MLM, reaction initiated by test compound. Here is the method: (§1) It is of note that the experimental design for the initial round of microsomal clearance assays adds a test compound to microsomes before the reaction is started by the addition of nicotinamide adenine dinucleotide phosphate (NADPH). This design assumes that the major contributing drug-metabolizing enzymes are cytochrome P450s (CYPs). To investigate this further, the experimental design was modified where the reaction was initiated by the addition of a test compound and was carried out in the presence or absence of NADPH. […] By comparison of the measured intrinsic clearance in the presence and absence of NADPH, the contribution of non-CYP450 drug-metabolizing enzymes can be estimated.
(§2) Mammalian liver microsomes include CYPs, flavin monooxygenases (FMOs), glucuronosyltransferases ([…]), and esterases as part of their enzyme composition. In the presence of NADPH, which serves as a cofactor for CYP- and FMO-dependent reactions, the observed activity can be attributed to these enzymes. Similarly, UGTs require the cofactor uridine diphosphate glucuronic acid (UDPGA). Therefore, when NADPH and UDPGA are absent, any reduction in the compound can be ascribed only to esterase activity or chemical instability. […] This is based on two factors: (1) the stability of the compounds in HP buffer, which is used in the platelet assays, and (2) the low probability of drug metabolism occurring within the platelets themselves. Together, these minimize the chance that any metabolites with distinct PAR4 potencies could confound the results. By comparing the area under the curve of the compound metabolized from the microsomal incubations in the presence or absence of NADPH to the corresponding area under the curve of the buffer-only incubation, the percent contribution of CYPs and FMOs and esterases were estimated (Table S1). The major contributing enzyme toward the metabolism of 12 is esterases in both the human (96%) and mouse (98%). In contrast, the metabolism of 31 was primarily driven by CYPs and FMOs in both HLM (80%) and MLM (88%).
(§3) In separate 96-well plates for each time point, a mixture of 0.1 M potassium phosphate-buffered (pH 7.4), 3 mM MgCl2, and 2.5 mg/mL microsomes were prewarmed at 37 °C for 5 min. Following the preincubation, a 1 μM test compound and 1 mM NADPH (for 3, 7, 15, 25, or 45 min time points) or buffer (for 0 min time point) were added to initiate the reaction. Under standard conditions, reactions were initiated with the addition of NADPH. To delineate the contribution of esterases, some experiments were initiated by the addition of substrate in the presence or absence of NADPH. Plates were incubated at 37 °C under ambient oxygenation. At the respective times, each plate’s reaction was precipitated by the addition of 2 volumes of ice-cold acetonitrile containing an internal standard (carbamazepine, 50 nM). The plates were centrifuged at 4000 rcf (4 °C) for 5 min. The resulting supernatants were transferred and diluted 1:1 (supernatant:water) into new 96-well plates in preparation for LC/MS/MS analysis. Each compound was assayed in triplicate within the same 96-well plate. The in vitro half-life (t1/2, min, eq 1), intrinsic clearance (CLint, mL/min/kg, eq 2), and subsequent predicted hepatic clearance (CLhep, mL/min/kg, eq 3) were determined employing the following equations [drawing 1] 1 [drawing 2] 2 [drawing 3] 3 The estimated percent contribution to metabolism was calculated from the percent substrate lost plots generated from metabolic incubations initiated with the addition of a test compound. Calculations compared the area under the curve (AUC) from conditions in the presence and absence of NADPH and buffer-only (control) conditions (eqs 4 and 5). AUC was calculated by using the trapezoidal method [drawing 4] 4 [drawing 5] 5
(§4) Clint (mL/min/kg) Estimated % Contribution to Metabolism
(§5) Compound Human Mouse Human Mouse +NADPH -NADPH +NADPH -NADPH CYPs/FMOs Esterases CYPs/FMOs Esterases […]

The target of the next data set is T1, mouse PAR4 (Mus musculus, UniProt O88634).
T1 construct: washed mouse platelets were prepared by collecting cardiac puncture blood; endogenous in cells; host or cells: washed mouse platelets (cardiac puncture blood)
T1 sequence (O88634 17-396): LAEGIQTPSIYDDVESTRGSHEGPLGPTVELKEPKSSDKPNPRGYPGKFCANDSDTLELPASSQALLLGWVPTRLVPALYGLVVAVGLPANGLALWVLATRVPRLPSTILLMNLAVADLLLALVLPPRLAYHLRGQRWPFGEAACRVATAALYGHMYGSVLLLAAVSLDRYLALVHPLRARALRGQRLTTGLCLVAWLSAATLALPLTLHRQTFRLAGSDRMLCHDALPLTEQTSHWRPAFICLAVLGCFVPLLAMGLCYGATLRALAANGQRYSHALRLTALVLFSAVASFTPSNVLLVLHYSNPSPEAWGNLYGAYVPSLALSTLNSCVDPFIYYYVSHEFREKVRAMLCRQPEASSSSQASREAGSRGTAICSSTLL
The experiment in a line: Mouse platelet activity assay, flow cytometry, γ-thrombin activation. The data set is classed as cell-based. On the procedure: For mouse PAR4 activity, washed mouse platelets were prepared by collecting cardiac puncture blood with 200 μL of 20 U/mL heparin. Following centrifugation at 1000 rpm for 15 min, plasma and buffy coat were collected into a separate tube and spiked with apyrase and PGE1. After centrifuging at 1000 rpm for 8 min, the platelet-rich plasma was transferred to another tube and centrifuged at 2200 rpm for 10 min to pellet the platelets. Platelets were resuspended in TBB + apyrase + PGE1. Platelets were counted and diluted in TBB to a final concentration of 2 × 10^7 platelets/mL. 50 μL of platelets were aliquoted to each tube preincubated with 50 μL of TBB with antibodies for mouse GPIIbIIIa and P-selectin (Emfret, Eibelstadt Germany) and either test compound antagonist or DMSO control. Platelets were activated with 316 nM γ-thrombin for 30 min. Samples were then fixed with 100 μL of 2% paraformaldehyde for 20 min and diluted with 300 μL of PBS. Flow cytometry counts are measured as for human platelets on a three-laser BD LSRFortessa (Becton Dickinson) and analyzed with FloJo software.
In general terms: A flow cytometer gives signals particle by particle.

Data set [2] can be described thus: Modified microsomal clearance assay with or without NADPH, human liver microsomes. It counts as in vitro ADME. The following applies: for Estimated % Contribution to Metabolism Human CYPs/FMOs / Estimated % Contribution to Metabolism Human Esterases: HLM, from AUC with/without NADPH vs buffer only; for CLint scaled at 1 µM: human, liver microsomes, pH 7.4, HLM, reaction initiated by test compound. On the procedure:
as §1, §2, §3, §4, §5

[3] abbreviates: Table 4 summary, read-out: mouse PAR4 IC50.
Where [4] appears, read: mouse platelets, 316 nM γ-thrombin, GPIIbIIIa (JonA), read-out: Mouse Platelets JonA IC50.
Setting [5] is: mouse platelets, 316 nM γ-thrombin, P-selectin, read-out: Mouse Platelets P-Sel IC50.

Structures are written as SMILES. Where two headings read alike, the source gives them in different places.

The values that follow come from PMC11020070, “Discovery of Protease-Activated Receptor 4 (PAR4)-Tethered Ligand Antagonists Using Ultralarge Virtual Screening” (ACS Pharmacology & Translational Science, 2024).

As to `O=C(Nc1nc[nH]n1)c1nn(-c2ccccc2)c2c1CCC2` [Compound 17], the “Estimated % Contribution to Metabolism Mouse Esterases” value in data set [1] is listed as 0%. The intrinsic clearance (CLint scaled) at 1 µM in data set [1] (+NADPH) was found to be 789 mL/min/kg; in data set [1] (-NADPH), 27.8 mL/min/kg; in data set [2] (+NADPH), 26.8 mL/min/kg; in data set [2] (-NADPH) it was 12.4 mL/min/kg. The IC50 at mouse PAR4 (setting [3]) worked out at 3330 nM; at mouse PAR4 (setting [4]), 3330 nM; on mouse PAR4 (setting [5]) it was 4020 nM. For the same compound, in data set [2], the “Estimated % Contribution to Metabolism Human CYPs/FMOs” value is listed as 39%. In addition, the “Estimated % Contribution to Metabolism Human Esterases” value in data set [2] was 61%.

Turning to `Cn1nc(C(=O)Nc2n[nH]c(-c3c(F)cccc3F)n2)cc1C1CC1` [Compound 12], in data set [1], the “Estimated % Contribution to Metabolism Mouse CYPs/FMOs” value is 2%. Moreover, in data set [1], the “Estimated % Contribution to Metabolism Mouse Esterases” value is on record as 98%. For the same compound, the CLint scaled at 1 µM in data set [1] (+NADPH) amounted to 9820 mL/min/kg; in data set [1] (-NADPH), 6240 mL/min/kg; in data set [2] (+NADPH) it was 642 mL/min/kg; in data set [2] (-NADPH), 352 mL/min/kg. Also, the values for the IC50 at mouse PAR4 (setting [4]) and at mouse PAR4 (setting [5]) were 401 nM and 370 nM, respectively. Also, in data set [2], the “Estimated % Contribution to Metabolism Human CYPs/FMOs” value is listed as 4%. Further, the “Estimated % Contribution to Metabolism Human Esterases” value in data set [2] is 96%.

As for `COc1cccc(-c2nc(NC(=O)c3nn(-c4ccccc4)c4c3CCCC4)n[nH]2)c1` [Compound 32], the IC50 is 269 nM on mouse PAR4 (setting [3]), 269 nM at mouse PAR4 (setting [4]) and 298 nM at mouse PAR4 (setting [5]).

For `O=C(Nc1n[nH]c(-c2ccc(F)cc2F)n1)c1nn(-c2ccccc2)c2c1CCCC2` [Compound 31], the “Estimated % Contribution to Metabolism Mouse CYPs/FMOs” value in data set [1] is listed as 88%. The “Estimated % Contribution to Metabolism Mouse Esterases” value in data set [1] is given as 12%. Moreover, the CLint scaled at 1 µM in data set [1] (+NADPH) was determined as 10400 mL/min/kg; in data set [1] (-NADPH), 32.3 mL/min/kg; in data set [2] (+NADPH), 144 mL/min/kg; in data set [2] (-NADPH) it was 15.6 mL/min/kg. The IC50 at mouse PAR4 (setting [3]) came to 367 nM; on mouse PAR4 (setting [4]) it was 367 nM; on mouse PAR4 (setting [5]), 330 nM. Moreover, the “Estimated % Contribution to Metabolism Human CYPs/FMOs” value in data set [2] is reported as 80%. For the same compound, the “Estimated % Contribution to Metabolism Human Esterases” value in data set [2] is 20%.

In the case of `Cc1cc(C(=O)Nc2n[nH]c(OC(F)F)n2)nn1-c1ccccc1` [Compound 9], the IC50 at mouse PAR4 (setting [3]), on mouse PAR4 (setting [4]) and at mouse PAR4 (setting [5]) was 1450 nM each time.

In general, CLint scaled refers to the capacity of the preparation to metabolise the compound, expressed as a volume cleared per time. What is called IC50 is the concentration needed to halve the response being measured.
